Experimental data: ChEMBL document CHEMBL5653635, “Induction of apoptosis and cell cycle arrest by CP-358,774, an inhibitor of epidermal growth factor receptor tyrosine kinase” (Cancer Res, 1997)
Active and inactive are the calls of the source. No cut-off for these calls is given here.

Assays:
[1] = molecular target: Insulin-like growth factor 1 receptor (Homo sapiens) (UniProt P08069); assay: Inhibition of IGF-IR (711 to 1377 residues) (unknown origin) expressed in baculovirus-infected Sf9 cells at 20 uM incubated for 8 mins by colorimetry based assay relative to control
Insulin-like growth factor 1 receptor (Homo sapiens), sequence (P08069 31-736 limits assumed): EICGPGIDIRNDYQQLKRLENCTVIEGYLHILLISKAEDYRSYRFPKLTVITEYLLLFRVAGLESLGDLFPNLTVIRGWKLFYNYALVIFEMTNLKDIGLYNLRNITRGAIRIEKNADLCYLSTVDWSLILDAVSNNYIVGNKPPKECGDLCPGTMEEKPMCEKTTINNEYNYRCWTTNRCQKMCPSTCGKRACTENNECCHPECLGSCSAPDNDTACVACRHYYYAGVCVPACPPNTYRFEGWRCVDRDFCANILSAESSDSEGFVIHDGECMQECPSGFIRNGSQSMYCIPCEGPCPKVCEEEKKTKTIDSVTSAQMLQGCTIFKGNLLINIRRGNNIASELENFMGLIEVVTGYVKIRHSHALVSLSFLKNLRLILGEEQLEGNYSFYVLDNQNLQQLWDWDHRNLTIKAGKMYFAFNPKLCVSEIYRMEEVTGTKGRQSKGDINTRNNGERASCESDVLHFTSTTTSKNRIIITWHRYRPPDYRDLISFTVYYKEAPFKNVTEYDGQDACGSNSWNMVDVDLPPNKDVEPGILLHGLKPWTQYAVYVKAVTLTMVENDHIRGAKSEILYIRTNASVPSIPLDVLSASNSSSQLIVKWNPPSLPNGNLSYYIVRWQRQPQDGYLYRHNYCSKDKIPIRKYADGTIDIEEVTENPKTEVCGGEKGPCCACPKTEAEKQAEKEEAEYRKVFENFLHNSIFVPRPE
Insulin-like growth factor 1 receptor (Homo sapiens), sequence (P08069 741-1367 limits assumed): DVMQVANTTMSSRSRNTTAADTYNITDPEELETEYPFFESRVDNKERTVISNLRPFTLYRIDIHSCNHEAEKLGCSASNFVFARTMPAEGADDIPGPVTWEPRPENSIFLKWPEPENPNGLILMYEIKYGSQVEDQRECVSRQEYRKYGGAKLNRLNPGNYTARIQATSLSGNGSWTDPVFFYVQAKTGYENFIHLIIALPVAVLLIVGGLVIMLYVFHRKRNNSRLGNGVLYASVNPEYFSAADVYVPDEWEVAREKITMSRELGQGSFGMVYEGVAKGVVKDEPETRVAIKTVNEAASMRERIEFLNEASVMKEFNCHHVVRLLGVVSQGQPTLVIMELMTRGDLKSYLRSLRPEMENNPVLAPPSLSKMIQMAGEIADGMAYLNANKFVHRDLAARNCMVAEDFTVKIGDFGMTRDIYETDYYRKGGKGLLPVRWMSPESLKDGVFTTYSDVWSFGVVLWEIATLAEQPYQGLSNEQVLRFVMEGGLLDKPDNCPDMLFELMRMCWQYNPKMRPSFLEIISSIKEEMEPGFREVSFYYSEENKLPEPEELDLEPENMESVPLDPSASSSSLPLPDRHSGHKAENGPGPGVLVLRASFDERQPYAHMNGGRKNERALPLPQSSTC

DiFi [2] = assay: Induction of apoptosis in human DiFi cells assessed as DNA fragmentation at 1 uM measured after 24 hrs in presence of IGF-1 by agarose gel electrophoresis analysis; format: functional, cell-based
DiFi [3] = assay: Induction of apoptosis in human DiFi cells assessed as protection of annexin V-FITC binding at 1 uM incubated for 24 hrs in presence of IGF-1 by annexin V-FITC and PI staining based flow cytometry analysis relative to control; format: functional
[4] = molecular target: Insulin-like growth factor 1 receptor (Homo sapiens) (UniProt P08069); assay: Inhibition of IGF-IR (711 to 1377 residues) (unknown origin) expressed in baculovirus-infected Sf9 cells at 10 uM incubated for 8 mins by colorimetry based assay
DiFi [5] = assay: Induction of PARP cleavage in human DiFi cells assessed as increase in Mr 85000 fragments at 1 uM incubated for 24 hrs in presence of IGF-1 by Western blotting analysis; format: functional, cell-based
DiFi [6] = assay: Induction of cell cycle arrest in human DiFi cells assessed as accumulation of cells at S phase at 1 uM incubated for 24 hrs by PI staining based flow cytometry analysis (reference value: 8 %); format: functional
HN5 [7] = assay: Antiproliferative activity against human HN5 cells assessed as inhibition of cell viability at 250 nM relative to control; format: functional
HN5 [8] = assay: Induction of apoptosis in human HN5 cells assessed as decrease in cell population at 1 uM measured after 24 hrs by PI staining based flow cytometry analysis; format: functional
DiFi [9] = assay: Induction of cell cycle arrest in human DiFi cells assessed as accumulation of cells at G2 phase at 1 uM incubated for 24 hrs by PI staining based flow cytometry analysis (reference value: 28%); format: functional
[10] = molecular target: Insulin receptor (Homo sapiens) (UniProt P06213); assay: Inhibition of insulin induced phosphorylation of insulin receptor in serum starved human HN5 cells at 1 uM preincubated for 1 hr followed by insulin stimulation and measured after 5 mins by immunoblot analysis; format: cell-based; conditions: time 65.0 min
Insulin receptor (Homo sapiens), sequence (P06213 28-758 limits assumed): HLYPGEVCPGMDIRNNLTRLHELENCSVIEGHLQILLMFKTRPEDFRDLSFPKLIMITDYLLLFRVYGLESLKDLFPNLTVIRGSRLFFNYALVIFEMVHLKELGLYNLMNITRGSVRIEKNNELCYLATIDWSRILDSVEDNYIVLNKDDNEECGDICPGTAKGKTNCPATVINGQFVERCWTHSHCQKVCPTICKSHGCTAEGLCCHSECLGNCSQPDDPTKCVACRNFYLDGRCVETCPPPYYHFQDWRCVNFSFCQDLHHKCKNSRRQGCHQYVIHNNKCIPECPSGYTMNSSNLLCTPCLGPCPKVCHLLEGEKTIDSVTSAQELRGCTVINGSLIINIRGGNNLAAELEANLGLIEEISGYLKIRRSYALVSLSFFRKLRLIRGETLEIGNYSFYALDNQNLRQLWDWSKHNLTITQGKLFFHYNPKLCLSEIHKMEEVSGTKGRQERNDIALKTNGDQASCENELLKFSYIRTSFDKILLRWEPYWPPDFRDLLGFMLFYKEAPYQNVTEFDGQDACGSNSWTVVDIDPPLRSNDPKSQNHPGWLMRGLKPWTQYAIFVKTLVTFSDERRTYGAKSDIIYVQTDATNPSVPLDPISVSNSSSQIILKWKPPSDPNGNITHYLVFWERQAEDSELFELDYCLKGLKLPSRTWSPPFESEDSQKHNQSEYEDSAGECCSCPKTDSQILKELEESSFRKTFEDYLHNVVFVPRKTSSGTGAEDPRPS
Insulin receptor (Homo sapiens), sequence (P06213 763-1382 limits assumed): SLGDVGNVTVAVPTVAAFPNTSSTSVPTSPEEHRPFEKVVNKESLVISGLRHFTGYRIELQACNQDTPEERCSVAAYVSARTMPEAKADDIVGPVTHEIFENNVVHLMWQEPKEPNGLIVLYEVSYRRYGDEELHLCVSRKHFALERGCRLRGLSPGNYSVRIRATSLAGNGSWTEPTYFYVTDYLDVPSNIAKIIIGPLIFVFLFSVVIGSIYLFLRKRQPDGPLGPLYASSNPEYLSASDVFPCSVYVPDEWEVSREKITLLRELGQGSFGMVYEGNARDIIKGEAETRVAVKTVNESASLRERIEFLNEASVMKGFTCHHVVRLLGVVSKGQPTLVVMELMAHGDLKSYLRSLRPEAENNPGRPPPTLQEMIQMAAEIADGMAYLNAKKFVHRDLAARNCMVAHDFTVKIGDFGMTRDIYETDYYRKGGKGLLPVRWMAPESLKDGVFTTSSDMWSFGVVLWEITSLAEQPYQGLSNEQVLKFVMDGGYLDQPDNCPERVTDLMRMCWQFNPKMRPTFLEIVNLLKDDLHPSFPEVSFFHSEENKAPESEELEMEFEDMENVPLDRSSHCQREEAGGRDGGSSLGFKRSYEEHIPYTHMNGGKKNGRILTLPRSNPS

DiFi [11] = assay: Induction of apoptosis in human DiFi cells at 1 uM measured after 24 hrs in presence of IGF-1 by annexin V-FITC and PI staining based flow cytometry analysis (reference value: 6%); format: functional
HN5 [12] = assay: Antiproliferative activity against human HN5 cells assessed as inhibition of cell viability at 50 nM; format: functional, cell-based
DiFi [13] = assay: Induction of PARP cleavage in human DiFi cells assessed as increase in Mr 85000 fragments at 8 ug/ml […] incubated for 24 hrs by Western blotting analysis; format: functional, cell-based; conditions: dose 8.0 µg/ml
[14] = Antiproliferative activity against raf-transformed mouse NIH3T3 cells assessed as inhibition of cell viability; format: toxicity, cell-based
DiFi [15] = assay: Induction of apoptosis in human DiFi cells assessed as DNA fragmentation by measuring DNA ladders at 1 uM measured after 24 hrs by agarose gel electrophoresis analysis; format: functional, cell-based
DiFi [16] = assay: Induction of cell cycle arrest in human DiFi cells assessed as accumulation of cells at G1 phase at 1 uM incubated for 24 hrs in presence of IGF-1 by PI staining based flow cytometry analysis (reference value: 64%); format: functional
DiFi [17] = assay: Induction of apoptosis in human DiFi cells at 1 uM incubated for 24 hrs by PI staining based flow cytometry analysis (reference value: 2.3%); format: functional
DiFi [18] = assay: Induction of PARP cleavage in human DiFi cells assessed as decrease in Mr 116000 fragments at 1 uM incubated for 24 hrs by Western blotting analysis; format: functional, cell-based
DiFi [19] = assay: Induction of apoptosis in human DiFi cells assessed as accumulation of cells at sub-G1 phase at 1 uM measured after 24 hrs by PI staining based flow cytometry analysis; format: functional, cell-based
DiFi [20] = assay: Induction of cell cycle arrest in human DiFi cells assessed as accumulation of cells at S phase at 1 uM incubated for 24 hrs in presence of IGF-1 by PI staining based flow cytometry analysis (reference value: 8 %); format: functional
DiFi [21] = assay: Antiproliferative activity against human DiFi cells assessed as percentage of viable cells at 1 uM measured after 24 hrs by coulter counter method (reference value: 98+/-0.8%); format: functional
DiFi [22] = assay: Induction of apoptosis in human DiFi cells assessed as accumulation of cells at sub-G1 phase at 1 uM measured after 24 hrs in presence of IGF-1 by PI staining based flow cytometry analysis; format: functional, cell-based
DiFi [23] = assay: Induction of cell cycle arrest in human DiFi cells assessed as decrease in cell percentage in S phase at 1 uM measured after 24 hrs by BrdUrd incorporation based flow cytometry analysis (reference value: 14 +- 0.5%); format: functional; parameters: scale not given: the % may be the effect or the level left
DiFi [24] = assay: Induction of cell cycle arrest in human DiFi cells assessed as decrease in cell percentage in S phase at 0.1 uM measured after 24 hrs by BrdUrd incorporation based flow cytometry analysis (reference value: 14 +- 0.5%); format: functional; parameters: scale not given: the % may be the effect or the level left
DiFi [25] = assay: Induction of apoptosis in human DiFi cells assessed as decrease in number of normal cells at 1 uM incubated for 24 hrs by annexin V-FITC and PI staining based flow cytometry analysis; format: functional, cell-based
DiFi [26] = assay: Induction of cell cycle arrest in human DiFi cells assessed as accumulation of cells at G1 phase at 1 uM incubated for 24 hrs by PI staining based flow cytometry analysis (reference value: 64%); format: functional
HN5 [27] = assay: Induction of cell cycle arrest in human HN5 cells assessed as reduction in accumulation of cells in S phase at 1 uM measured after 48 hrs by PI staining based flow cytometry analysis (reference value: 55%); format: functional; parameters: scale not given: the % may be the effect or the level left
DiFi [28] = assay: Induction of cell cycle arrest in human DiFi cells assessed as increase in cell percentage in G1 phase at 1 uM measured after 24 hrs by BrdUrd incorporation based flow cytometry analysis (reference value: 82 +- 0.9%); format: functional
DiFi [29] = assay: Induction of cell cycle arrest in human DiFi cells assessed as accumulation of cells at G2 phase at 1 uM incubated for 24 hrs in presence of IGF-1 by PI staining based flow cytometry analysis (reference value: 28%); format: functional
DiFi [30] = assay: Induction of apoptosis in human DiFi cells at 1 uM incubated for 24 hrs in presence of IGF-1 by PI staining based flow cytometry analysis (reference value: 2.3%); format: functional
[31] = molecular target: Insulin-like growth factor 1 receptor (Homo sapiens) (UniProt P08069); assay: Inhibition of insulin induced phosphorylation of IRS-1 in serum starved human HN5 cells at 1 uM preincubated for 1 hr followed by insulin stimulation and measured after 5 mins by immunoblot analysis; format: cell-based; conditions: time 65.0 min
[32] = molecular target: Insulin receptor (Homo sapiens) (UniProt P06213); assay: Inhibition of human recombinant insulin receptor expressed in baculovirus at 10 uM incubated for 8 mins by colorimetry based assay
DiFi [33] = assay: Induction of PARP cleavage in human DiFi cells assessed as increase in Mr 85000 fragments at 1 uM incubated for 24 hrs by Western blotting analysis; format: functional, cell-based
DiFi [34] = assay: Induction of cell cycle arrest in human DiFi cells assessed as increase in cell percentage in G1 phase at 0.1 uM measured after 24 hrs by BrdUrd incorporation based flow cytometry analysis (reference value: 82 +- 0.9%); format: functional
DiFi [35] = assay: Induction of apoptosis in human DiFi cells assessed as increase in number of necrotic cells at 1 uM incubated for 24 hrs by annexin V-FITC and PI staining based flow cytometry analysis; format: functional, cell-based
DiFi [36] = assay: Induction of PARP cleavage in human DiFi cells assessed as decrease in Mr 116000 fragments at 1 uM incubated for 24 hrs in presence of IGF-1 by Western blotting analysis; format: functional, cell-based
HN5 [37] = assay: Induction of cell cycle arrest in human HN5 cells assessed as increase in accumulation of cells in G1 phase at 1 uM measured after 48 hrs by PI staining based flow cytometry analysis (reference value: 24%); format: functional
DiFi [38] = assay: Induction of apoptosis in human DiFi cells at 1 uM measured after 24 hrs by annexin V-FITC and PI staining based flow cytometry analysis (reference value: 6%); format: functional

Structure (SMILES): N#CC(C#N)=Cc1cc(O)c(O)c(O)c1
- inhibition [1]: 50%

Structure (SMILES): C#Cc1cccc(Nc2ncnc3cc(OCCOC)c(OCCOC)cc23)c1 [ERLOTINIB]
- Activity (DiFi [2]): inactive
- Activity (DiFi [3]): 100%
- inhibition [4]: inactive
- Activity (DiFi [5]): inactive
- Activity (DiFi [6]): 5%
- Activity (HN5 [7]): 100%
- Activity (HN5 [8]): Active
- Activity (DiFi [9]): 18%
- inhibition [10]: inactive
- Activity (DiFi [11]): 6%
- Activity (HN5 [12]): Active
- Activity (DiFi [13]): Active
- IC50 [14]: 7 µM
- Activity (DiFi [15]): Active
- Activity (DiFi [16]): 77%
- Activity (DiFi [17]): 17%
- Activity (DiFi [18]): Active
- Activity (DiFi [19]): Active
- Activity (DiFi [20]): 2%
- Activity (DiFi [21]): 97%
- Activity (DiFi [22]): inactive
- Activity (DiFi [23]): 0.7%
- Activity (DiFi [24]): 9%
- Activity (DiFi [25]): Active
- Activity (DiFi [26]): 77%
- Activity (HN5 [27]): 24%
- Activity (DiFi [28]): 95%
- Activity (DiFi [29]): 21%
- Activity (DiFi [30]): 7.4%
- inhibition [31]: inactive
- inhibition [32]: inactive
- Activity (DiFi [33]): Active
- Activity (DiFi [34]): 85%
- Activity (DiFi [35]): inactive
- Activity (DiFi [36]): inactive
- Activity (HN5 [37]): 56%
- Activity (DiFi [38]): 21%
